Assay results as given in ChEMBL document CHEMBL4622868, “Design and synthesis of amphiphilic 2-hydroxybenzylphosphonium salts with antimicrobial and antitumor dual action” (Bioorg Med Chem Lett, 2020).

How the values were obtained:
[1] = test system: Staphylococcus aureus; assay: Antibacterial activity against Staphylococcus aureus ATCC 209p; format: functional
[2] = test system: Staphylococcus aureus; assay: Bactericidal activity against Staphylococcus aureus ATCC 209p; format: functional
[3] = test system: Bacillus cereus; assay: Antibacterial activity against Bacillus cereus; format: functional
[4] = test system: Bacillus cereus; assay: Bactericidal activity against Bacillus cereus; format: functional
[5] = test system: Trichophyton mentagrophytes; assay: Antifungal activity against Trichophyton mentagrophytes; format: functional
[6] = test system: Trichophyton mentagrophytes; assay: Fungicidal activity against Trichophyton mentagrophytes; format: functional
[7] = test system: Candida albicans; assay: Antifungal activity against Candida albicans; format: functional
[8] = test system: Candida albicans; assay: Fungicidal activity against Candida albicans; format: functional
[9] = test system: Staphylococcus aureus; assay: Antibacterial activity against clinical isolate amoxicillin and ciprofloxacin resistance Staphylococcus aureus; format: functional
[10] = test system: Staphylococcus aureus; assay: Bactericidal activity against clinical isolate amoxicillin and ciprofloxacin resistance Staphylococcus aureus; format: functional
[11] = test system: Staphylococcus aureus; assay: Antibacterial activity against clinical isolate amoxicillin resistance Staphylococcus aureus; format: functional
[12] = test system: Staphylococcus aureus; assay: Bactericidal activity against clinical isolate amoxicillin resistance Staphylococcus aureus; format: functional
[13] = test system: Staphylococcus aureus; assay: Antibacterial activity against Staphylococcus aureus ATCC 209p assessed as increase in crystal violet uptake at 2 uM incubated for 30 mins (reference value: 1.8 %); format: functional
[14] = Hemolytic activity against RBC (unknown origin) at 480 uM; format: ADME, cell-based, Erythrocyte; details: red blood cells (erythrocytes); read-out: Activity
[15] = Hemolytic activity against RBC (unknown origin) at 240 uM; format: ADME, cell-based, Erythrocyte; details: red blood cells (erythrocytes); read-out: Activity
[16] = Hemolytic activity against RBC (unknown origin) at 120 uM; format: ADME, cell-based, Erythrocyte; details: red blood cells (erythrocytes); read-out: Activity
[17] = Hemolytic activity against RBC (unknown origin) at 60 uM; format: ADME, cell-based, Erythrocyte; details: red blood cells (erythrocytes); read-out: Activity
[18] = Hemolytic activity against RBC (unknown origin) at 40 uM; format: ADME, cell-based, Erythrocyte; details: red blood cells (erythrocytes); read-out: Activity
[19] = Hemolytic activity against RBC (unknown origin) at 20 uM; format: ADME, cell-based, Erythrocyte; details: red blood cells (erythrocytes); read-out: Activity
[20] = Hemolytic activity against RBC (unknown origin) at 10 uM; format: ADME, cell-based, Erythrocyte; details: red blood cells (erythrocytes); read-out: Activity
[21] = Hemolytic activity against RBC (unknown origin) at 5 uM; format: ADME, cell-based, Erythrocyte; details: red blood cells (erythrocytes); read-out: Activity
[22] = Hemolytic activity against RBC (unknown origin) at 1 uM; format: ADME, cell-based, Erythrocyte; details: red blood cells (erythrocytes); read-out: Activity
[23] = test system: M-HeLa; assay: Cytotoxicity against human M-HeLa cells; format: functional, cell-based
[24] = test system: MCF7; assay: Cytotoxicity against human MCF7 cells; format: functional, cell-based
[25] = test system: HepG2; assay: Cytotoxicity against human HepG2 cells; format: functional, cell-based; details: read-out: IC50
[26] = test system: PANC-1; assay: Cytotoxicity against human PANC1 cells; format: functional, cell-based
[27] = Cytotoxicity against human Chang cells; format: cell-based
[28] = Selectivity index, ratio of IC50 for human Chang cells to IC50 for human M-HeLa cells
[29] = Selectivity index, ratio of IC50 for human Chang cells to IC50 for human MCF7 cells
[30] = Selectivity index, ratio of IC50 for human Chang cells to IC50 for human HepG2 cells
[31] = Selectivity index, ratio of IC50 for human Chang cells to IC50 for human PANC1 cells
[32] = test system: M-HeLa; assay: Induction of apoptosis in human M-HeLa cells assessed as viable cells at 3 uM incubated for 24 hrs by Annexin-V FITC and propidium iodide staining based flow cytometry analysis (reference value: 90.48 %); format: functional; details: read-out: Activity
[33] = test system: M-HeLa; assay: Induction of apoptosis in human M-HeLa cells assessed as early apoptotic cells at 3 uM incubated for 24 hrs by Annexin-V FITC and propidium iodide staining based flow cytometry analysis (reference value: 7.85 %); format: functional
[34] = test system: M-HeLa; assay: Induction of apoptosis in human M-HeLa cells assessed as late apoptotic cells at 3 uM incubated for 24 hrs by Annexin-V FITC and propidium iodide staining based flow cytometry analysis (reference value: 0.36 %); format: functional
[35] = test system: M-HeLa; assay: Induction of apoptosis in human M-HeLa cells assessed as necrotic cells at 3 uM incubated for 24 hrs by Annexin-V FITC and propidium iodide staining based flow cytometry analysis (reference value: 1.32 %); format: functional
[36] = test system: M-HeLa; assay: Induction of apoptosis in human M-HeLa cells assessed as viable cells at 6 uM incubated for 24 hrs by Annexin-V FITC and propidium iodide staining based flow cytometry analysis (reference value: 90.48 %); format: functional; details: read-out: Activity
[37] = test system: M-HeLa; assay: Induction of apoptosis in human M-HeLa cells assessed as early apoptotic cells at 6 uM incubated for 24 hrs by Annexin-V FITC and propidium iodide staining based flow cytometry analysis (reference value: 7.85 %); format: functional
[38] = test system: M-HeLa; assay: Induction of apoptosis in human M-HeLa cells assessed as late apoptotic cells at 6 uM incubated for 24 hrs by Annexin-V FITC and propidium iodide staining based flow cytometry analysis (reference value: 0.36 %); format: functional
[39] = test system: M-HeLa; assay: Induction of apoptosis in human M-HeLa cells assessed as necrotic cells at 6 uM incubated for 24 hrs by Annexin-V FITC and propidium iodide staining based flow cytometry analysis (reference value: 1.32 %); format: functional
[40] = test system: M-HeLa; assay: Induction of apoptosis in human M-HeLa cells assessed as early apoptotic cells incubated for 24 hrs by Annexin-V FITC and propidium iodide staining based flow cytometry analysis; format: functional, cell-based
[41] = test system: M-HeLa; assay: Induction of mitochondrial membrane potential loss in human M-HeLa cells assessed as decrease in red fluorescence intensity at 3 uM by JC10 staining based flow cytometry analysis (reference value: 99.70 %); format: functional; design: scale not given: the % may be the effect or the level left
[42] = test system: M-HeLa; assay: Induction of mitochondrial membrane potential loss in human M-HeLa cells assessed as decrease in red fluorescence intensity at 6 uM by JC10 staining based flow cytometry analysis (reference value: 99.70 %); format: functional; design: scale not given: the % may be the effect or the level left
[43] = test system: M-HeLa; assay: Induction of mitochondrial membrane potential loss in human M-HeLa cells assessed as decrease in red fluorescence intensity by JC10 staining based flow cytometry analysis; format: functional, cell-based

CCCCCCCCCCCC[P+](Cc1ccccc1O)(c1ccccc1)c1ccccc1.[Cl-]
MIC [1]: 1 µM
MBC [2]: 2 µM
MIC [3]: 0.9 µM
MBC [4]: 3.8 µM
MIC [5]: 7.8 µM
MFC [6]: 7.8 µM
MIC [7]: 7.8 µM
MFC [8]: 7.8 µM
MIC [9]: 2 µM
MBC [10]: 8 µM
MIC [11]: 4 µM
MBC [12]: 16 µM
Activity [13]: 24 - 82.7%
hemolysis at 480 µM [14]: 65.4%
hemolysis at 240 µM [15]: 42.3%
hemolysis at 120 µM [16]: 21.2%
hemolysis at 60 µM [17]: 12.2%
hemolysis at 40 µM [18]: 2.9%
hemolysis at 20 µM [19]: 1.8%
hemolysis at 10 µM [20]: 1.3%
hemolysis at 5 µM [21]: 0.9%
hemolysis at 1 µM [22]: 0%
IC50 [23]: 2.6 µM
IC50 [24]: 7.2 µM
IC50 [25]: 9.8 µM
IC50 [26]: 25.3 µM
IC50 [27]: 42.8 µM
Ratio IC50 [28]: 16.4
Ratio IC50 [29]: 5.9
Ratio IC50 [30]: 4.5
Ratio IC50 [31]: 1.7
viability at 3 µM [32]: 46.4%
Activity [33]: 39.26%
Activity [34]: 9.78%
Activity [35]: 4.57%
viability at 6 µM [36]: 33.4%
Activity [37]: 53.31%
Activity [38]: 10.89%
Activity [39]: 2.42%
Activity [40]: Dose-dependent effect
Activity [41]: 76.61%
Activity [42]: 39.17%
Activity [43]: Dose-dependent effect
